Tested on: HSCs activation (α-SMA, vimentin, desmin)
Test: CCl4 mouse model: HSC activation markers in liver
Format: in vivo, C57BL/6 mice
Details: CCl4 mice
Method: C57BL/6 mice (20 ± 2 g) were obtained from Hangzhou Medical College Experimental Animal Center (Hangzhou, China). The animals were maintained under controlled temperature (22°C ± 1°C), humidity (50%), and light (12 h light/12 h dark). The animals were fed a standard laboratory diet and provided with free access to tap water. All animals received humane care according to institutional animal care guidelines approved by the Experimental Animal Ethical Committee of Hangzhou Medical College. Forty mice were randomly divided into six groups: (1) vehicle control (n = 7); (2) CCl4 model (n = 7); (3) CCl4 + LIN (20 mg/kg) (n = 7); (4) CCl4 + LIN (40 mg/kg) (n = 7); (5) LIN (40 mg/kg) (n = 7); and (6) CCl4 + silymarin (SIL) (200 mg/kg) (n = 5). LIN and SIL were dissolved in 0.5% CMC-Na solution. Mice were administered LIN or SIL (intragastric administration, i.g.) once per day and CCl4 (intraperitoneal injection, i.p.; mixed 1:3 in olive oil, 2 mL/kg) twice per week for 4 weeks. Mice in the vehicle control group received olive oil (i.p. twice a week, 4 weeks) and 0.5% CMC-Na (i.g. every day, 4 weeks). After treatment, the mice were sacrificed, and plasma and liver tissues were collected and further analysed.
Total RNA was extracted from liver tissues and LX-2 cells using the TRIzol reagent. cDNA was synthesised using a PrimeScript RT Master Mix kit. Real-time PCR was performed using SYBR Green premix according to the manufacturer’s instructions. Relative expression of target genes was normalised to actin, analysed by the delta-delta-CT method and given as a ratio compared with the vehicle control. Primer sequences used in this study are listed in Supplementary Material.
The formalin-fixed and de-paraffinized liver sections (5 μm) were incubated with 5% bovine serum albumin to minimise non-specific binding, and then incubated with α-SMA antibody (Santa Cruz, SC-53142) in a humidified chamber overnight at 4°C. After washing thrice with PBS, the sections were incubated with FITC-conjugated secondary antibody (SH0058; Skyhobio) for 1 h. After washing thrice, the liver sections were incubated with DAPI for 10 min. Images were captured using an inverted microscope (IX81; Olympus, Japan).
Paraffin-embedded liver sections were deparaffinized in xylene, rehydrated in a gradient of ethanol to distilled water, and then quenched by 3% hydrogen peroxide and then incubated with 5% bovine serum albumin, followed by incubation with vimentin antibody (ABclonal, A19607) at 4°C overnight, and further detected by using DAKO EnVision detection kits (Agilent Technologies Co., Ltd. K346811). The sections were counterstained with haematoxylin. Images were taken using an inverted microscope, and vimentin-positive cells were counted manually using Image-Pro Plus 6 in three random fields per sample (each group contained three samples).
Liver proteins were isolated by using a lysis buffer containing 50 mM Tris-HCl (pH7.5), 150 mM NaCl, 1 mM EDTA, 20 mM NaF, 0.5% NP-40, 10% glycerol, 1 mM phenylmethylsulphonyl fluoride, 10 μg/mL aprotinin, 10 μg/mL leupeptin, and 10 μg/mL pepstatin. The supernatants were collected after centrifugation at 3,000 g for 10 min at 4°C, and the protein concentration of each sample was determined and normalised to the same protein concentration. Protein samples were separated by sodium dodecyl sulphate-polyacrylamide gel electrophoresis and transferred onto polyvinylidene fluoride membranes. The membranes were incubated with the indicated primary and secondary antibodies, and the proteins in the membranes were visualised using a chemiluminescence kit. TGF-® antibody (CST, 3711), Smad 2/3 antibody (CST, 8685), p-Smad 2/3 antibody (CST, 8828), anti-α-SMA antibody (Santa Cruz, SC-53142), vimentin antibody (ABclonal, A19607), desmin antibody (ABclonal, A3736), GAPDH antibody (Beyotime, AF0006), and SHP2 antibody (CST, 3397). […]

[1] = LIN 20 mg/kg, Western blot, p < 0.05

SMILES: C/C1=C\CCC2=C[C@@H](OC2=O)c2c(C)coc2C1 [LIN, linderalactone]
- liver α-SMA accumulation (immunofluorescence staining) (LIN): largely inhibited
- protein expression of hepatic Des [1]: significant reduction
- protein expression of hepatic Vim [1]: significant reduction
- protein expression of hepatic α-SMA [1]: significant reduction
- hepatic mRNA expression of Des (LIN 20 and 40 mg/kg): significantly reduced
- hepatic mRNA expression of Vim (LIN 20 and 40 mg/kg): significantly reduced
- hepatic mRNA expression of acta2 (LIN 20 and 40 mg/kg): significantly reduced
